Experiment [1] deals with StHdh^Q111/Q111 cells. Description: RUSH system: GPI-SBP-mCherry trafficking from endoplasmic reticulum to Golgi and plasma membrane. Type of experiment: cell-based, mouse. How it is done:
The RUSH plasmid (Boncompain et al., 2012) is a bicistronic plasmid (SEQ ID NO: 2) allowing the expression of two parts of the system: the reticulum-specific anchor (KDEL-streptavidin), and the reporter part (GPI-SBP-mCh). The addition of biotin in the extracellular medium (40 μM) induces the unhooking of the reporter part of the anchor, thus allowing to follow the intracellular trafficking in a synchronized way within a cell population from the endoplasmic reticulum.
For striatal StHdh cells, acute treatment was performed at 10 μM for 1 hour before and during the acquisition time. For neurons within the microchambers, treatments were started at DIV2 until DIV12 every day at 1 μM in each compartment of the microfluidic device.
The inventors used the Retention Using Selective Hooks (RUSH) system to study intracellular dynamics from the ER to the plasma membrane in Huntington's disease condition (FIG. 1A). RUSH allows tracking the synchronous release of a reporter molecule from specific intracellular compartments. In the present experiment, the inventors followed the release of glycosylphosphatidylinositol (GPI)-anchored fluorescence protein mCherry, and fused to streptavidin-binding peptide (SBP) that was retained into the ER compartment by the interaction with a “hook” protein composed of the KDEL motif fused to streptavidin. In the absence of biotin, the GPI-SBP-mCherry localizes at the ER (FIG. 1A). Addition of biotin to the cells expressing GPI-SBP-mCherry and KDEL-streptavidin causes a synchronous release of the GPI-SBP-mCherry reporter from the hook which then migrates to the Golgi apparatus and later to the plasma membrane.
To study these dynamics in the context of Huntington's disease, the inventors transfected the GPI-SBP-mCherry-KDEL-streptavidin construct as shown in SEQ ID NO:2 into immortalized striatal cells from Hdh^Q111/Q111 and Hdh^Q7/Q7 mice, referred to as StHdh^Q111/Q111 and StHdh^Q7/Q7 cells respectively. They then monitored GPI-SBP-mCherry trafficking by real-time imaging for 90 minutes. To assess intracellular trafficking dynamics, they quantified the kinetics of appearance and disappearance of mCherry fluorescence in the Golgi apparatus over time (FIGS. 1B and C). Shortly after biotin addition, GPI leaves the ER and moves to the Golgi apparatus. The inventors quantified fluorescence at the Golgi and observed that in StHdh^Q7/Q7 cells, the peak fluorescence was at 16.6 minutes, whereas it was delayed to 23.6 minutes in StHdh^Q111/Q111 cells (FIG. 1B). Their observations indicate a reduced trafficking of GPI from the ER to the Golgi apparatus as well as prolonged retention of GPI in the Golgi as evidenced by a longer period of GPI fluorescence in the Golgi apparatus.

The test system of experiment [2] is melanoma cells. Conditions: studies of Vujic et al., 2015; cited from earlier work.
Experiment [3] deals with APT1 (Homo sapiens, UniProt O75608). The conditions noted are these: read-out: IC50APT1; cited from earlier work.
Experiment [4] deals with APT2 (Homo sapiens, UniProt O95372). The conditions noted are these: read-out: IC50APT2; cited from earlier work.
Setting [5] is: StHdh^Q111/Q111 cells, inhibitor 10 μM 1 hour or siRNA gene silencing.

Chain of APT2 (O95372 whole entry): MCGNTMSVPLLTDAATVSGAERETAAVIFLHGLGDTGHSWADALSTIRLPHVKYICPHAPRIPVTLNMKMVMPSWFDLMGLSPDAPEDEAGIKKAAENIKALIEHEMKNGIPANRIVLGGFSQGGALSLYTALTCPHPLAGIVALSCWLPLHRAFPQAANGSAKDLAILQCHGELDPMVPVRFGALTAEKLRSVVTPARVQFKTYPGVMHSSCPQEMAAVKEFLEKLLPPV
Chain of APT1 (O75608 whole entry): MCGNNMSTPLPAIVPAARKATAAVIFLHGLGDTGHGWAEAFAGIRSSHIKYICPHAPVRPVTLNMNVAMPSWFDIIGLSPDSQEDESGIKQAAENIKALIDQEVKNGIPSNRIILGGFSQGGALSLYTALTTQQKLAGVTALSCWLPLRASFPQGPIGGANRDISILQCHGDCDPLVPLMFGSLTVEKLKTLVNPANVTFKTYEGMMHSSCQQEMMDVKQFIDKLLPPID

Turning to `COc1ccc(N2CCN(C(=O)c3cc4c(s3)-c3ccccc3S(=O)(=O)C4)CC2)cc1` [ML-349], in experiment [1] (setting [5]), the “effect on kinetics from the endoplasmic reticulum to the Golgi apparatus” value was “no effect” and the “effect on retention in the Golgi” value is given as “no effect”. Moreover, the “effect on melanoma cells” value in experiment [2] is on record as “no biologically significant effect”.
With `CCCCCCCCCC[C@@H]1C(=O)O[C@H]1CCc1ccc(OC)c(OC)c1` [Palmostatin B], the “time after biotin addition for the appearance of the fluorescence peak in the Golgi” value in experiment [1] (StHdh^Q111/Q111 cells treated 1 hour with 10 μM, without treatment 23.2-23.3 min, StHdh^Q7/Q7 16.6 min) is on record as 18 min. The “time for fluorescence to leave the Golgi apparatus (retention time in the Golgi)” value in experiment [1] (StHdh^Q111/Q111 cells treated 1 hour with 10 μM, without treatment 24-25.4 min, wild-type cells 15.1 min) stood at 21.3 min. The IC50 in experiment [3] was 5.4 nM; in experiment [4] it was 37.7 nM.
